Patent US8431530B2, “Compositions and methods for treating aids or cancer by inhibiting the secretion of microparticles” (priority 2009, dated 2013)

Experiments:
[1] = tested on: HIV-1 Nef-GFP secretion, cell line H; assay: HIV-1 Nef-GFP induced secretion, fluorescent plate reader assay; type: cell-based; settings: HIV-1 Nef-GFP (sM1 column head prints GFP/sM1)
[2] = tested on: NefGFP release from HEK293 cells; assay: Nef-GFP co-transfection secretion assay, GFP fluorescence of supernatant; type: cell-based; settings: HEK293, 0.5 μg Nef-GFP + 0.5 μg peptide, Chariot, 48 h; relative to NefGFP+sM1 (100%)
Method: Therefore, a set of co-transfection experiments were performed. HEK293 cells were co-transfected with 0.5 μg of pQBI-HIV Nef-GFP (expresses wild type Nef protein) and either 0.5 μg of HIV-1 Nef SMRwt or SMRmut peptide or sM1 peptide (a totally random control peptide, ALAETCQNAWA (SEQ ID NO: 7)) with Chariot. Briefly, the wild-type Nef-GFP clone and the SMR peptides were complexed with Chariot reagent for 30 minutes at RT. The DNA/peptide/Chariot complex was added to HEK293 cells in serum-free media, and the cells were plated. Following incubation for 2 hours at 37° C., media with serum was added to the dish, and the cells were incubated at 37° C. for 48 h. The media was then collected and assayed for secretion using a spectrofluorimeter. The conditioned supernatants from these cultures were assayed for GFP fluorescence by plate reader.

[3] = tested on: pNL4-3 in Jurkat cells; assay: p24 assay of virion production after pNL4-3 co-transfection; type: cell-based, HIV; settings: Jurkat; for p24: co-transfected with pNL4-3; for Effect (a/b): p24 of sample / p24 of pNL4-3 + sM1
Method: I. Jurkat cells were co-transfected as shown below: (transfection efficiency 30-40% by Chariot Kit):
(§1) pNL4-3 is a clone containing the viral genome. Transfection into cells allows expression of the viral genome and ultimately virion formation and release. The amount of virion production in the extracellular supernatant is measured through p24 protein (viral protein). Samples were collected at 48 hours and 96 hours post-infection.
(§2) At 48 hr postinfection two plates in each group were removed and analyzed by: • a. p24 assay • b. Nef assay • c. Infectivity assay • At 96 hr postinfection the other two plates in each group were removed and analyzed by: • a. p24 assay • b. Nef assay • c. Infectivity assay

[4] = tested on: Gag-GFP + HIV-1wtNef-RFP secretion, THP-1 Monocyte; assay: Gag-GFP secretion in presence of wtNef-RFP, fluorescent plate reader assay; type: cell-based; settings: Gag-GFP + HIV-1wtNef-RFP + peptide, 48 hours
Method: (§3) Cells were transfected with the pQBI-HIV Gag-GFP construct, wtNef-RFP, and either the antagonist (SMRwt peptide), the negative control SMRmt peptide, or a random peptide sM1 with Chariot for 48 hours. The conditioned supernatants from these cultures were assayed for GFP fluorescence by plate reader.

[5] = tested on: Gag-GFP + HIV-1wtNef-RFP secretion, Jurkat; assay: as above; type: cell-based; settings: Jurkat, Gag-GFP + HIV-1wtNef-RFP + peptide, 48 hours
Method: as §3

[6] = tested on: pNL4-3 in 293 cells; assay: p24 assay of virion production after pNL4-3 co-transfection; type: cell-based, HIV; settings: for p24: co-transfected with pNL4-3; for Effect (a/b): p24 of sample / p24 of pNL4-3 + sM1
Method: as §1, §2

[7] = tested on: HIV-1 Gag-GFP secretion, Jurkat; assay: HIV-1 Gag-GFP induced secretion, fluorescent plate reader assay; type: cell-based; settings: HIV-1 Gag-GFP (sM1 column head prints GFP/sM1), 0.5 μg peptide, 48 hours
Method: (§4) Cells were co-transfected with 0.5 μg of pQBI-HIV Gag-GFP (expresses wild type Gag protein) and either 0.5 μg of HIV-1 Nef SMRwt, SMRmut peptide, sM1 peptide or untransfected controls with Chariot for 48 hours. The conditioned supernatants from these cultures were assayed for GFP fluorescence by plate reader.

[8] = tested on: HIV-1 Gag-GFP secretion, THP-1; assay: as above; type: cell-based; settings: THP-1, HIV-1 Gag-GFP (sM1 column head prints GFP/sM1), 0.5 μg peptide, 48 hours
Method: as §4

[9] = tested on: HIV-1 Gag-GFP secretion, HEK293; assay: as above; type: cell-based; settings: HEK293, HIV-1 Gag-GFP (sM1 column head prints GFP/sM1), 0.5 μg peptide, 48 hours
Method: as §4

[10] = tested on: HIV-1 Gag-GFP secretion, U937; assay: as above; type: cell-based; settings: U937, HIV-1 Gag-GFP (sM1 column head prints GFP/sM1), 0.5 μg peptide, 48 hours
Method: as §4

[11] = lower doses could be less toxic; cited from earlier work
[12] = target: Mortalin (Homo sapiens, UniProt P38646); settings: literature; inactivates chaperone function; cited from earlier work
Sequence of Mortalin (P38646 47-679): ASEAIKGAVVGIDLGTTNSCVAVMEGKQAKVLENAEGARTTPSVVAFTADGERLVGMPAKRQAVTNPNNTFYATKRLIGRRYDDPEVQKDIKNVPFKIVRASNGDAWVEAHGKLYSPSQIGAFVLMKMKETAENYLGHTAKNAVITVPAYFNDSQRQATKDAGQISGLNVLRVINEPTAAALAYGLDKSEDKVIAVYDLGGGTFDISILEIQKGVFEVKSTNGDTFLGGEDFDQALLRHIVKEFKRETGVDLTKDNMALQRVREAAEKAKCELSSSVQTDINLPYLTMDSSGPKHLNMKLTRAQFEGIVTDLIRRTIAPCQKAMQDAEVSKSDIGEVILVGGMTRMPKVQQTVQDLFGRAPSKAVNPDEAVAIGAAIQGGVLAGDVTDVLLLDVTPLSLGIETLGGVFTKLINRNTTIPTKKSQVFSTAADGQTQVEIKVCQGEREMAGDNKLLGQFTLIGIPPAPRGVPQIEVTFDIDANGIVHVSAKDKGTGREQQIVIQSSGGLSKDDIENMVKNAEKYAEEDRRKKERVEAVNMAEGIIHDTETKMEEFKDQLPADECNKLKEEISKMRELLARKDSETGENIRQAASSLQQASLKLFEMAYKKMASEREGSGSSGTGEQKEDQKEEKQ

[13] = tested on: human tumor cell lines; settings: cited from earlier work

In the case of “ALAETCQNAWA [sM1, a totally random control peptide]”, the “Increase in Secretion (relative to untransfected cells), exp condition/UT” value [1] is reported as 1.05x, the “release of NefGFP into the extracellular supernatant (GFP fluorescence)” value [2] is reported as “no effect” and the p24 ([3]; 48 hr) is reported as 0 pg/mL. The “Effect (a/b)” value ([3]; 48 hr) was 1, the p24 ([3]; 96 hr) was 30 pg/mL and the “Effect (a/b)” value ([3]; 96 hr) was 1. The “Secretion relative to untransfected cells” value ([4]; first line) was 43.11x, the “Secretion relative to untransfected cells” value ([4]; second line (not explained)) was 20.51x and the “Secretion relative to untransfected cells” value ([5]; first line) was 61.99x. For the same compound, the “Secretion relative to untransfected cells” value ([5]; second line (not explained)) was 40.36x, the p24 ([6]; 293, 48 hr) was 45 pg/mL and the “Effect (a/b)” value ([6]; 293, 48 hr) was 1.0. For the same compound, the p24 ([6]; 293, 96 hr) was 960 pg/mL, the “Effect (a/b)” value ([6]; 293, 96 hr) was 1 and the “Increase in Secretion (relative to untransfected cells), exp condition/UT” value [7] was 1.09x. For the same compound, the “Increase in Secretion (relative to untransfected cells), exp condition/UT” value [8] was 0.85x, the “Increase in Secretion (relative to untransfected cells), exp condition/UT” value [9] was 2.05x and the “Increase in Secretion (relative to untransfected cells), exp condition/UT” value [10] was 1.05x.

In the case of `CCn1c(=O)/c(=C2\Sc3ccccc3N2C)s/c1=C\c1cccc[n+]1CC.[Cl-]` [MKT-077], the “toxicity in clinical trials” value [11] is given as “renal toxicity”, the “binding to Mortalin” value [12] is given as “binds to the nucleotide-binding domain (NBD) of Mortalin” and the “death of cancer cells” value ([13]; literature (Deocaris et al. 2007)) is given as “causes selective death of cancer cells”. The “senescence in human tumor cell lines” value ([13]; literature) was “inducing senescence”.
